Activity calls are given as the source filed them. No cut-off for these calls is given here.
Columns and labels:
[1] = biological target: Gamma-aminobutyric acid receptor subunit rho-1 (Homo sapiens) (UniProt P24046); assay: Inhibition of inward current in oocytes expressing human GABA-C receptor rho1 subunit (No inhibition); format: cell-based; details: Oocyte
GABA B receptor = GABA B receptor (Rattus norvegicus, UniProt O88871+Q9Z0U4); assay: Displacement of [3H]GABA from Gamma-aminobutyric acid type B receptor in rat brain membranes; format: cell membranes
Chain of GABA B receptor (Q9Z0U4 whole entry): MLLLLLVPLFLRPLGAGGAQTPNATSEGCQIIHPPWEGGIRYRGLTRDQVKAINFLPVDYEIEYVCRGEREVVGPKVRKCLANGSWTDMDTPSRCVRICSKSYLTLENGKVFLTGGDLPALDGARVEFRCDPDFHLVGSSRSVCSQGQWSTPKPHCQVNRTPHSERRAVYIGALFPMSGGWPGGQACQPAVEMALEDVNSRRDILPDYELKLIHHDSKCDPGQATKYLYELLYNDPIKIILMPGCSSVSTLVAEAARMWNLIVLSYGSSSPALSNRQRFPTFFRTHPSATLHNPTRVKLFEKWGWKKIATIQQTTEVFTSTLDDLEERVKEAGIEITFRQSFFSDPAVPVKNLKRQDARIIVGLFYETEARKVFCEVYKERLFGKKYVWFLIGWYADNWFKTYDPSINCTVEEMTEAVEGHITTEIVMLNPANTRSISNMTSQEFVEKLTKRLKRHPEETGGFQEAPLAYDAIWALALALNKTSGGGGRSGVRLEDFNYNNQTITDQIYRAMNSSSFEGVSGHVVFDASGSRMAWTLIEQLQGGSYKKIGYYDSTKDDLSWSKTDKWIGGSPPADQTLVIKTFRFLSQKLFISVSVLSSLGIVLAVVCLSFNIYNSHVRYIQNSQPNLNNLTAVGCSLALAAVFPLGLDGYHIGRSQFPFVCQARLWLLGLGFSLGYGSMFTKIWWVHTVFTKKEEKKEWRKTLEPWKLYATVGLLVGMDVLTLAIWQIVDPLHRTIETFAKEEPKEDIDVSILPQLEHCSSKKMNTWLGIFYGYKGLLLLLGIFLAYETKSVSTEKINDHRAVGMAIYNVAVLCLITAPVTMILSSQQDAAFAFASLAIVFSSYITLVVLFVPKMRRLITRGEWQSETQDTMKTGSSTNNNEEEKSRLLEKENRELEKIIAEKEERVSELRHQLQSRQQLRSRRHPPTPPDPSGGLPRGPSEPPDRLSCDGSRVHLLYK
Chain of GABA B receptor (O88871 whole entry): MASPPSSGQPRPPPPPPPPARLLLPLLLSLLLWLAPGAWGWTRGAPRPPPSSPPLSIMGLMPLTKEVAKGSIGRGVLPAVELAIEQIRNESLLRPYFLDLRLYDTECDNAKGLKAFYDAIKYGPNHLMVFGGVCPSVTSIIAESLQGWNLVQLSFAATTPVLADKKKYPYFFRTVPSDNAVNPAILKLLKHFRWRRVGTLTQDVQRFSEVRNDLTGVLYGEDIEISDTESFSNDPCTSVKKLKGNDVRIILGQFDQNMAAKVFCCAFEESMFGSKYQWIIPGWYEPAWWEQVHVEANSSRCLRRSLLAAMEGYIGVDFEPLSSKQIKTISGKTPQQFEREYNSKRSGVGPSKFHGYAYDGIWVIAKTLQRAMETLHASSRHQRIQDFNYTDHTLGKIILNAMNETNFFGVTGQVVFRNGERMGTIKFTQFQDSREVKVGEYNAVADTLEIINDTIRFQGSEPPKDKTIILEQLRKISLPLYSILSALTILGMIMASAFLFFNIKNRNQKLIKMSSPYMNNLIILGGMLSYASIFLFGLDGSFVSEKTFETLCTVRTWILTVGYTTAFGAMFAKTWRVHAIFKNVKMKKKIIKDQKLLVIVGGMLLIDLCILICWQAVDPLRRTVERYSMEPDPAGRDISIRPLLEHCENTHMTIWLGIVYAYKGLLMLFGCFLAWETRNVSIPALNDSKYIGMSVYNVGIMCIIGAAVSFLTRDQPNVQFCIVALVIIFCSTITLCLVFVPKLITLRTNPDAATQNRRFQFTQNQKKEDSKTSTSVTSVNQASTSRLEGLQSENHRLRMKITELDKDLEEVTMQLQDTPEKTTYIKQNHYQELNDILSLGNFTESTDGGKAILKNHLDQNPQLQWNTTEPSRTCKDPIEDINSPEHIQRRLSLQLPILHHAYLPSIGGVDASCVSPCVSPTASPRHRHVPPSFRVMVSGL

[2] = Partition coefficient (logD); format: physicochemical; details: octanol/water
[3] = biological target: Gamma-aminobutyric acid receptor subunit rho-1 (Homo sapiens) (UniProt P24046); assay: Inhibition of inward current in oocytes expressing human GABA-C receptor rho1 subunit; format: cell-based; details: Oocyte
[4] = Dissociation constant was determined; format: physicochemical

Chain of Gamma-aminobutyric acid receptor subunit rho-1 (Homo sapiens) (P24046 whole entry): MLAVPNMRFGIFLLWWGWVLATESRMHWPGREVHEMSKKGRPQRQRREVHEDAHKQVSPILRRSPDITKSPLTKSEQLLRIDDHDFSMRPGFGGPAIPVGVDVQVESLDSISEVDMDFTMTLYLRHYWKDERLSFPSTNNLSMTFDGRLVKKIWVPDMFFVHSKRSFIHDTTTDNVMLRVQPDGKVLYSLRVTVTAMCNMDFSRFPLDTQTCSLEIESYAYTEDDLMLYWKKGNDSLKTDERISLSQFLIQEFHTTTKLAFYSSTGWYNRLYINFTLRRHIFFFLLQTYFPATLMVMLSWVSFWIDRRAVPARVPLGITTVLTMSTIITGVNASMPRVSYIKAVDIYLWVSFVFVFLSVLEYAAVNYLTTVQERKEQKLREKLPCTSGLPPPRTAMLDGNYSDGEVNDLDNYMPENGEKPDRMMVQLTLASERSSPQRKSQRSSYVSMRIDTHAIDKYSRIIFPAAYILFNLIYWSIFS

SMILES	Kb [1]	IC50 (GABA B receptor) [µM]	logD [2]	Log KB [3]	pKa [4]
NCc1cc(F)c(O)c(F)c1	75.5 µM	> 1000	-1.7	-4.12	6.98
CP(=O)(O)C1=CCNCC1			-3.7		
NCc1ccc(F)c(O)c1F	inactive	> 1000	-1.7		6.52
NCCCC(=O)O [GAMMA-AMINOBUTYRIC ACID]			-3.1		

Reference: ChEMBL document CHEMBL1131865, “Aminomethyl-2,6-difluorophenols as a novel class of increased lipophilicity GABA(C) receptor antagonists” (Bioorg Med Chem Lett, 1999)
